#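 Interpolation was linear, between the two tested concentrations surrounding the appropriate level; five concentrations were tested over 48 hours in 96-well plates. GI50 is the concentration that inhibits growth by half. TGI: total growth inhibition.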
# How the values were obtained:
# Experiment in all cases: NCI tumour cell line growth inhibition, 48 h
# KM12 colon = tested on: KM12 colon
# CAKI-1 renal = tested on: CAKI-1 renal
# UACC-257 melanoma = tested on: UACC-257 melanoma
# HT29 colon = tested on: HT29 colon
# SF-539 CNS = tested on: SF-539 CNS
# COLO 205 colon = tested on: COLO 205 colon
# IGROV1 ovarian = tested on: IGROV1 ovarian
# SW-620 colon = tested on: SW-620 colon
# HCT-116 colon = tested on: HCT-116 colon
# SNB-19 CNS = tested on: SNB-19 CNS
# OVCAR-5 ovarian = tested on: OVCAR-5 ovarian
# UACC-62 melanoma = tested on: UACC-62 melanoma
# CCRF-CEM leukemia = tested on: CCRF-CEM leukemia
# LOX IMVI melanoma = tested on: LOX IMVI melanoma
# MDA-MB-435 = tested on: MDA-MB-435
# T-47D breast = tested on: T-47D breast
# BT-549 breast = tested on: BT-549 breast
# RPMI-8226 leukemia = tested on: RPMI-8226 leukemia
# SK-OV-3 ovarian = tested on: SK-OV-3 ovarian
# SF-268 CNS = tested on: SF-268 CNS
# HOP-92 NSCLC = tested on: HOP-92 NSCLC
# A498 renal = tested on: A498 renal
# HOP-62 NSCLC = tested on: HOP-62 NSCLC
# DU-145 prostate = tested on: DU-145 prostate
# SK-MEL-2 melanoma = tested on: SK-MEL-2 melanoma
# A549 NSCLC = tested on: A549 NSCLC
# U251 CNS = tested on: U251 CNS
# TK-10 renal = tested on: TK-10 renal
# PC-3 prostate = tested on: PC-3 prostate
# ACHN renal = tested on: ACHN renal
# HL-60(TB) leukemia = tested on: HL-60(TB) leukemia
# M14 melanoma = tested on: M14 melanoma
# MDA-MB-231 breast = tested on: MDA-MB-231 breast
# SNB-75 CNS = tested on: SNB-75 CNS
# HS 578T breast = tested on: HS 578T breast
# MCF7 breast = tested on: MCF7 breast
# MALME-3M melanoma = tested on: MALME-3M melanoma
# 786-0 renal = tested on: 786-0 renal
# SK-MEL-5 melanoma = tested on: SK-MEL-5 melanoma
# SN12C renal = tested on: SN12C renal
# OVCAR-8 ovarian = tested on: OVCAR-8 ovarian
# OVCAR-4 ovarian = tested on: OVCAR-4 ovarian
# EKVX NSCLC = tested on: EKVX NSCLC
# UO-31 renal = tested on: UO-31 renal
# K-562 leukemia = tested on: K-562 leukemia
# NCI-H460 lung = tested on: NCI-H460 lung
# NCI-H522 lung = tested on: NCI-H522 lung
# HCC-2998 colon = tested on: HCC-2998 colon
# NCI/ADR-RES ovarian = tested on: NCI/ADR-RES ovarian
# NCI-H23 lung = tested on: NCI-H23 lung
# SR leukemia = tested on: SR leukemia
# NCI-H226 lung = tested on: NCI-H226 lung
# HCT-15 colon = tested on: HCT-15 colon
# SF-295 CNS = tested on: SF-295 CNS
# SK-MEL-28 melanoma = tested on: SK-MEL-28 melanoma
# RXF 393 renal = tested on: RXF 393 renal
# MOLT-4 leukemia = tested on: MOLT-4 leukemia
structure (smiles),measurement,setting,value
Cn1ccnc1C(=O)/C=C/c1ccc(CNC(=O)c2ccc(S(F)(F)(F)(F)F)cc2)cc1,GI50,KM12 colon,2.8 µM
same,TGI,KM12 colon,6.02 µM
same,GI50,CAKI-1 renal,3.26 µM
same,TGI,CAKI-1 renal,6.9 µM
same,GI50,UACC-257 melanoma,5.73 µM
same,TGI,UACC-257 melanoma,15.2 µM
same,GI50,HT29 colon,3.9 µM
same,TGI,HT29 colon,8.68 µM
same,GI50,SF-539 CNS,3.37 µM
same,TGI,SF-539 CNS,7.04 µM
same,GI50,COLO 205 colon,4.22 µM
same,TGI,COLO 205 colon,9.07 µM
same,GI50,IGROV1 ovarian,3.76 µM
same,TGI,IGROV1 ovarian,10.6 µM
same,GI50,SW-620 colon,1.66 µM
same,TGI,SW-620 colon,5.85 µM
same,GI50,HCT-116 colon,3.17 µM
same,TGI,HCT-116 colon,7.36 µM
same,GI50,SNB-19 CNS,3.21 µM
same,TGI,SNB-19 CNS,7.07 µM
same,GI50,OVCAR-5 ovarian,4.48 µM
same,TGI,OVCAR-5 ovarian,11.6 µM
same,GI50,UACC-62 melanoma,3.98 µM
same,TGI,UACC-62 melanoma,9.1 µM
same,GI50,CCRF-CEM leukemia,3.25 µM
same,TGI,CCRF-CEM leukemia,> 25 µM
same,GI50,LOX IMVI melanoma,1.12 µM
same,TGI,LOX IMVI melanoma,4.2 µM
same,GI50,MDA-MB-435,5.76 µM
same,TGI,MDA-MB-435,16.1 µM
same,GI50,T-47D breast,4.32 µM
same,TGI,T-47D breast,18.6 µM
same,GI50,BT-549 breast,3.49 µM
same,TGI,BT-549 breast,7.63 µM
same,GI50,RPMI-8226 leukemia,1.3 µM
same,TGI,RPMI-8226 leukemia,8.28 µM
same,GI50,SK-OV-3 ovarian,7.7 µM
same,TGI,SK-OV-3 ovarian,> 25 µM
same,GI50,SF-268 CNS,3.44 µM
same,TGI,SF-268 CNS,7.52 µM
same,GI50,HOP-92 NSCLC,4.38 µM
same,TGI,HOP-92 NSCLC,12.1 µM
same,GI50,A498 renal,3.41 µM
same,TGI,A498 renal,6.84 µM
same,GI50,HOP-62 NSCLC,4.31 µM
same,TGI,HOP-62 NSCLC,9.55 µM
same,GI50,DU-145 prostate,3.26 µM
same,TGI,DU-145 prostate,6.6 µM
same,GI50,SK-MEL-2 melanoma,4.24 µM
same,TGI,SK-MEL-2 melanoma,9.22 µM
same,GI50,A549 NSCLC,5.92 µM
same,TGI,A549 NSCLC,> 25 µM
same,GI50,U251 CNS,1.45 µM
same,TGI,U251 CNS,5.33 µM
same,GI50,TK-10 renal,4.38 µM
same,TGI,TK-10 renal,9.15 µM
same,GI50,PC-3 prostate,3.64 µM
same,TGI,PC-3 prostate,10.3 µM
same,GI50,ACHN renal,4.23 µM
same,TGI,ACHN renal,7.74 µM
same,GI50,HL-60(TB) leukemia,4.87 µM
same,TGI,HL-60(TB) leukemia,17.1 µM
same,GI50,M14 melanoma,4.58 µM
same,TGI,M14 melanoma,9.4 µM
same,GI50,MDA-MB-231 breast,5.57 µM
same,TGI,MDA-MB-231 breast,18.9 µM
same,GI50,SNB-75 CNS,2.12 µM
same,TGI,SNB-75 CNS,5.41 µM
same,GI50,HS 578T breast,5.45 µM
same,TGI,HS 578T breast,21.4 µM
same,GI50,MCF7 breast,0.868 µM
same,TGI,MCF7 breast,4.79 µM
same,GI50,MALME-3M melanoma,4.85 µM
same,TGI,MALME-3M melanoma,12 µM
same,GI50,786-0 renal,4.09 µM
same,TGI,786-0 renal,8.27 µM
same,GI50,SK-MEL-5 melanoma,4.57 µM
same,TGI,SK-MEL-5 melanoma,8.52 µM
same,GI50,SN12C renal,5.74 µM
same,TGI,SN12C renal,18.6 µM
same,GI50,OVCAR-8 ovarian,6.54 µM
same,TGI,OVCAR-8 ovarian,> 25 µM
same,GI50,OVCAR-4 ovarian,3.64 µM
same,TGI,OVCAR-4 ovarian,11.3 µM
same,GI50,EKVX NSCLC,4.38 µM
same,TGI,EKVX NSCLC,10.3 µM
same,GI50,UO-31 renal,3.36 µM
same,TGI,UO-31 renal,6.59 µM
same,GI50,K-562 leukemia,1.05 µM
same,TGI,K-562 leukemia,> 25 µM
same,GI50,NCI-H460 lung,3.34 µM
same,TGI,NCI-H460 lung,9.53 µM
same,GI50,NCI-H522 lung,4.11 µM
same,TGI,NCI-H522 lung,8.23 µM
same,GI50,HCC-2998 colon,3.7 µM
same,TGI,HCC-2998 colon,7.17 µM
same,GI50,NCI/ADR-RES ovarian,5.71 µM
same,TGI,NCI/ADR-RES ovarian,> 25 µM
same,GI50,NCI-H23 lung,3.02 µM
same,TGI,NCI-H23 lung,7.69 µM
same,GI50,SR leukemia,0.854 µM
same,TGI,SR leukemia,> 25 µM
same,GI50,NCI-H226 lung,5.84 µM
same,TGI,NCI-H226 lung,> 25 µM
same,GI50,HCT-15 colon,1.36 µM
same,TGI,HCT-15 colon,6.49 µM
same,GI50,SF-295 CNS,3.6 µM
same,TGI,SF-295 CNS,7.15 µM
same,GI50,SK-MEL-28 melanoma,5.2 µM
same,TGI,SK-MEL-28 melanoma,11.4 µM
same,GI50,RXF 393 renal,3.53 µM
same,TGI,RXF 393 renal,7.41 µM
same,GI50,MOLT-4 leukemia,5.53 µM
same,TGI,MOLT-4 leukemia,22.5 µM
